Assay results taken from patent US8877933B2, “Thermodynamically stable form of a tosylate salt” (Bayer Intellectual Property GmbH, priority 2004, dated 2014).

Test: Thermodynamic and storage stability of the crystal forms of the compound of the formula (I)
Type: physicochemical
Conditions: for thermodynamic stability of the crystal form: room temperature

SMILES | thermodynamic stability of the crystal form | storage stability (after processing via suspensions)
CNC(=O)c1cc(Oc2ccc(NC(=O)Nc3ccc(Cl)c(C(F)(F)F)c3)cc2)ccn1.Cc1ccc(S(=O)(=O)O)cc1 [polymorph II, 4-{4-[({[4-Chloro-3-(trifluoromethyl)phenyl]amino}carbonyl)amino]phenoxy}-N-methylpyridine-2-carboxamide tosylate in the polymorph II] | metastable | –
CNC(=O)c1cc(Oc2ccc(NC(=O)Nc3ccc(Cl)c(C(F)(F)F)c3)cc2)ccn1.Cc1ccc(S(=O)(=O)O)cc1 [polymorph I, 4-{4-[({[4-chloro-3-(trifluoromethyl)phenyl]amino}carbonyl)-amino]phenoxy}-N-methylpyridine-2-carboxamide tosylate in the polymorph I] | thermodynamically stable at room temperature | storage-stable even after processing via suspensions
